Reference: patent US10195185B2, “3-(1H-imidazo[4,5-C]pyridin-2-yl)-1H-pyrazolo[4,3-B]pyridines and therapeutic uses thereof” (Samumed, LLC, priority 2015, dated 2019)
pEC50: −log10 of the molar value.

How the values were obtained:
[1] = tested on: Wnt activity (Wnt-responsive human Sp5 promoter, TCF/LEF binding sites) in SW480 colon carcinoma cells; assay: Wnt activity screening assay: Sp5-Luc luciferase reporter gene in SW480 cells; format: cell-based; conditions: for pEC50: 10-point dose-response from 10 μM, incubated overnight; for inhibition at 10 µM: given for EC50 of >10 μM, read-out: percent inhibition at 10 μM
Outline: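 Wnt-driven firefly luciferase in SW480 colon carcinoma cells reports pathway activity after overnight compound exposure (10 μM top concentration, 3-fold steps). Signal is normalized to DMSO controls.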

[2] = tested on: Primary human fibroblasts derived from IPF patients (LL29 cells) treated with TGF-β1; assay: Inhibition of the fibrotic process: αSMA staining in TGF-β1 treated fibroblasts; format: cell-based; conditions: Fibroblast, 96 h, LL29 fibroblasts treated with TGF-β1, 4 days; for inhibition at 10 µM: read-out: percent inhibition in brackets beside EC50 >10 μM
Outline: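 Potency reflects suppression of TGF-β1-driven αSMA expression in IPF patient fibroblasts over 4 days. Values are EC50s from normalized αSMA-positive cell counts, with % inhibition at 10 μM when EC50 exceeded 10 μM.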

Question: With CS(=O)(=O)NCc1cc(F)cc(-c2nccc3[nH]c(-c4n[nH]c5ccc(-c6cncnc6)nc45)nc23)c1 [Compound 503, N-(3-Fluoro-5-(2-(5-(pyrimidin-5-yl)-1H-pyrazolo[4,3-b]pyridin-3-yl)-1H-imidazo[4,5-c]pyridin-4-yl)benzyl)methanesulfonamide] as the molecule, how does the pEC50 [1] read?
Answer: < 5.00

Question: What about the inhibition at 10 µM [1] of the same molecule?
Answer: 18.7%

Question: What about the pEC50 [2] of the same molecule?
Answer: < 5.00

Question: And the inhibition at 10 µM [2]?
Answer: 0%

Question: How did the pEC50 [1] turn out when CCCCC(=O)Nc1cncc(-c2ccc3[nH]nc(-c4nc5c(-c6cc(F)cc(NCCN(C)C)c6)nccc5[nH]4)c3n2)c1 [Compound 467, N-(5-(3-(4-(3-((2-(Dimethylamino)ethyl)amino)-5-fluorophenyl)-1H-imidazo[4,5-c]pyridin-2-yl)-1H-pyrazolo[4,3-b]pyridin-5-yl)pyridin-3-yl)pentanamide] was run?
Answer: < 5.00

Question: What about the inhibition at 10 µM [1] of the same molecule?
Answer: 0%

Question: What about the pEC50 [2] of the same molecule?
Answer: 5.92

Question: COc1cncc(-c2ccc3[nH]nc(-c4nc5c(-c6cccc(F)c6)nccc5[nH]4)c3n2)c1 [Compound 516, 3-(4-(3-Fluorophenyl)-1H-imidazo[4,5-c]pyridin-2-yl)-5-(5-methoxypyridin-3-yl)-1H-pyrazolo[4,3-b]pyridine] was tested. Which pEC50 [1] did it give?
Answer: 5.89

Question: What about the pEC50 [2] of the same molecule?
Answer: 7.03

Question: CC(C)CC(=O)Nc1cncc(-c2ccc3[nH]nc(-c4nc5c(-c6cccc(F)c6)nccc5[nH]4)c3n2)c1 [Compound 2, N-(5-(3-(4-(3-Fluorophenyl)-1H-imidazo[4,5-c]pyridin-2-yl)-1H-pyrazolo [4,3-b]pyridin-5-yl)pyridin-3-yl)-3-methylbutanamide] was tested. Which pEC50 [1] did it give?
Answer: 5.06

Question: And the pEC50 [2]?
Answer: < 5.00

Question: What about the inhibition at 10 µM [2] of the same molecule?
Answer: 25.1%

Question: c1cncc(-c2nccc3[nH]c(-c4n[nH]c5ccc(-c6cncc(OC7CCCCC7)c6)nc45)nc23)c1 [Compound 559, 5-(5-(Cyclohexyloxy)pyridin-3-yl)-3-(4-(pyridin-3-yl)-1H-imidazo[4,5-c]pyridin-2-yl)-1H-pyrazolo[4,3-b]pyridine] was tested. Which pEC50 [1] did it give?
Answer: 5.49

Question: And the pEC50 [2]?
Answer: 5.56

Question: What does the source list for O=C(Nc1cncc(-c2ccc3[nH]nc(-c4nc5c(-c6cccs6)nccc5[nH]4)c3n2)c1)C1CC1 [Compound 356, N-(5-(3-(4-(Thiophen-2-yl)-1H-imidazo[4,5-c]pyridin-2-yl)-1H-pyrazolo [4,3-b]pyridin-5-yl)pyridin-3-yl)cyclopropanecarboxamide]?
Answer: pEC50 [1]: < 5.00; inhibition at 10 µM [1]: 4.1%; pEC50 [2]: 5.25

Question: With NC1CN(c2cncc(-c3ccc4[nH]nc(-c5nc6c(-c7cccc(F)c7)nccc6[nH]5)c4n3)n2)C1 [Compound 510, 1-(6-(3-(4-(3-Fluorophenyl)-1H-imidazo[4,5-c]pyridin-2-yl)-1H-pyrazolo [4,3-b]pyridin-5-yl)pyrazin-2-yl)azetidin-3-amine] as the molecule, how does the pEC50 [1] read?
Answer: < 5.00

Question: What about the inhibition at 10 µM [1] of the same molecule?
Answer: 16.3%

Question: And the pEC50 [2]?
Answer: < 5.00

Question: What about the inhibition at 10 µM [2] of the same molecule?
Answer: 10.3%

Question: With CN(C)Cc1cncc(-c2ccc3[nH]nc(-c4nc5c(-c6cccc(F)c6)nccc5[nH]4)c3n2)c1 [Compound 13, 1-(5-(3-(4-(3-Fluorophenyl)-1H-imidazo[4,5-c]pyridin-2-yl)-1H-pyrazolo [4,3-b]pyridin-5-yl)pyridin-3-yl)-N,N-dimethylmethanamine] as the molecule, how does the pEC50 [1] read?
Answer: 5.97

Question: And the pEC50 [2]?
Answer: 5.77

Question: Which results are given for O=C(CC1CCNCC1)Nc1cncc(-c2ccc3[nH]nc(-c4nc5c(-c6ccccn6)nccc5[nH]4)c3n2)c1 [Compound 593, 2-(Piperidin-4-yl)-N-(5-(3-(4-(pyri-2-yl)-1H-imidazo[4,5-c]pyridin-2-yl)-1H-pyrazolo[4,3-b]pyridin-5-yl)pyridin-3-yl)acetamide]?
Answer: pEC50 [1]: < 5.00; inhibition at 10 µM [1]: 31.4%; pEC50 [2]: 5.81

Question: Which results are given for CN(C)Cc1cncc(-c2ccc3[nH]nc(-c4nc5c(-c6cccs6)nccc5[nH]4)c3n2)c1 [Compound 349, N,N-dimethyl-1-(5-(3-(4-(thiophen-2-yl)-1H-imidazo[4,5-c]pyridin-2-yl)-1H-pyrazolo[4,3-b]pyridin-5-yl)pyridin-3-yl)methanamine]?
Answer: pEC50 [1]: 5.10; pEC50 [2]: 5.58

Question: With Cc1ccc(-c2nccc3[nH]c(-c4n[nH]c5ccc(-c6cncc(NC(=O)C7CCCC7)c6)nc45)nc23)s1 [Compound 414, N-(5-(3-(4-(5-Methylthiophen-2-yl)-1H-imidazo[4,5-c]pyridin-2-yl)-1H-pyrazolo[4,3-b]pyridin-5-yl)pyridin-3-yl)cyclopentanecarboxamide] as the molecule, how does the pEC50 [1] read?
Answer: < 5.00

Question: What about the inhibition at 10 µM [1] of the same molecule?
Answer: 23.8%

Question: What about the pEC50 [2] of the same molecule?
Answer: < 5.00

Question: What about the inhibition at 10 µM [2] of the same molecule?
Answer: 46.2%

Question: What does the source list for O=C(Nc1cncc(-c2ccc3[nH]nc(-c4nc5c(-c6cccc(F)c6)nccc5[nH]4)c3n2)c1)C1CC1 [Compound 20, N-(5-(3-(4-(3-Fluorophenyl)-1H-imidazo[4,5-c]pyridin-2-yl)-1H-pyrazolo [4,3-b]pyridin-5-yl)pyridin-3-yl)cyclopropanecarboxamide]?
Answer: pEC50 [1]: < 5.00; inhibition at 10 µM [1]: 14.7%; pEC50 [2]: < 5.00; inhibition at 10 µM [2]: 14.1%

Question: How did the pEC50 [1] turn out when Cc1cn(-c2nccc3[nH]c(-c4n[nH]c5ccc(-c6cncc(OCCN(C)C)c6)nc45)nc23)cn1 [Compound 627, N,N-Dimethyl-2-((5-(3-(4-(4-methyl-1H-imidazol-1-yl)-1H-imidazo[4,5-c]pyridin-2-yl)-1H-pyrazolo[4,3-b]pyridin-5-yl)pyridin-3-yl)oxy)ethan-1-amine] was run?
Answer: < 5.00

Question: And the inhibition at 10 µM [1]?
Answer: 11.8%

Question: What about the pEC50 [2] of the same molecule?
Answer: 5.36

Question: What does the source list for CN(C)CCNc1cc(F)cc(-c2nccc3[nH]c(-c4n[nH]c5ccc(-c6ccccn6)nc45)nc23)c1 [Compound 476, N^1-(3-Fluoro-5-(2-(5-(pyridin-2-yl)-1H-pyrazolo[4,3-b]pyridin-3-yl)-1H-imidazo[4,5-c]pyridin-4-yl)phenyl)-N^2,N^2-dimethylethane-1,2-diamine]?
Answer: pEC50 [1]: 5.06; pEC50 [2]: 5.76

Question: CN(C)CCOc1cncc(-c2ccc3[nH]nc(-c4nc5c(-c6cccc(F)c6)nccc5[nH]4)c3n2)c1 [Compound 515, 2-((5-(3-(4-(3-Fluorophenyl)-1H-imidazo[4,5-c]pyridin-2-yl)-1H-pyrazolo [4,3-b]pyridin-5-yl)pyridin-3-yl)oxy)-N,N-dimethylethan-1-amine] was tested. Which pEC50 [1] did it give?
Answer: 5.46

Question: And the pEC50 [2]?
Answer: 6.06

Question: With Cc1ccncc1-c1ccc2[nH]nc(-c3nc4c(-c5cc(F)cc(CNS(C)(=O)=O)c5)nccc4[nH]3)c2n1 [Compound 481, N-(3-Fluoro-5-(2-(5-(4-methylpyridin-3-yl)-1H-pyrazolo[4,3-b]pyridin-3-yl)-1H-imidazo[4,5-c]pyridin-4-yl)benzyl)methanesulfonamide] as the molecule, how does the pEC50 [1] read?
Answer: 5.62

Question: What about the pEC50 [2] of the same molecule?
Answer: 5.30

Question: Fc1cccc(-c2nccc3[nH]c(-c4n[nH]c5ccc(C6CCNCC6)nc45)nc23)c1 [Compound 505, 3-(4-(3-Fluorophenyl)-1H-imidazo[4,5-c]pyridin-2-yl)-5-(piperidin-4-yl)-1H-pyrazolo[4,3-b]pyridine] was tested. Which pEC50 [1] did it give?
Answer: < 5.00

Question: What about the inhibition at 10 µM [1] of the same molecule?
Answer: 11.9%

Question: And the pEC50 [2]?
Answer: 5.42
